Source: publication PMC3413433, “A novel cytarabine crystalline lipid prodrug: Hexadecyloxypropyl cytarabine 3′,5′-cyclic monophosphate for proliferative vitreoretinopathy” (Molecular Vision, 2012)
“And” between values parts separate entries of the source, which are not always exact repeats. Equal entries are not always repeated. “Also recorded” adds a separate entry of the source. Marks after values point to notes of the source that are not given here.

Tests used:
herpes simplex virus = tested on: herpes simplex virus; parameters: method as in PMID 15505067; settings: single intravitreal injection; cited from earlier work
experimental PVR = tested on: experimental PVR; parameters: method as in PMID 10359331; settings: intravitreal injection; cited from earlier work
[1] = parameters: method as in PMID 1917392; settings: unmodified nucleoside; cited from earlier work
rat eyes = experiment: Toxicity study of HDP-P-Ara-C in rat eyes (intravitreal injection); type: in vivo
Procedure: Twelve Brown Norway rats were used to evaluate the effect of intravitreal HDP-P-Ara-C versus control injection. […] Only one eye of each rat was injected with the drug, and the fellow eye was injected with saline as control. Electroretinograms (ERGs) were obtained before drug injection and 1 day before scheduled sacrifice. Following injection, toxicity and safety were evaluated with indirect ophthalmoscopy, biomicroscopy, and fundus photography. At week 2 following drug injections, all of the rats were euthanized with intraperitoneal injection of ketamine (100 mg/kg) and xylazine (10 mg/kg) followed by intraperitoneal injection of 120 mg/kg sodium pentobarbital. Six eyes were used for pathologic evaluation and six eyes used for evaluation of vitreous drug level. Vitreous drug levels were determined at the end of the experiment using high-performance liquid chromatography (HPLC).
(§1) Intraocular pressure (IOP) measurements and ERG recordings were repeated measurement data. Therefore, generalized estimating equations were used to compare the mean IOP and ERG amplitudes between each treatment group and the control group. All analyses were performed with SAS 9.2 software (SAS Institute Inc., Cary, NC), and the difference was considered to be significant when the p value was smaller than 0.05.

rMC-1 cells = experiment: Cell proliferation assay (rMC-1/XTT); type: cell-based; settings: Rattus norvegicus, 120 h, 5 days, XTT, read-out: 50% cytotoxicity concentration (CC50)
Procedure: (§2) Human retinal pigment epithelium (ARPE-19) cells were obtained from the American Type Culture Collection (ATCC; Manassas, VA). A rat Müller cell line, rMC-1, was provided by Dr. Gabe Silva at UC San Diego (originally obtained from Dr. Vijay Sarthy, Northwestern University, Chicago, IL). ARPE-19 cells were cultured in Dulbecco’s modified Eagle medium (DMEM)/F12 and rMC-1 in DMEM. DMEM/F12 medium and DMEM were maintained at 37 °C in a humidified chamber of 5% CO2. All culture media were supplemented with 10% fetal bovine serum, 100 U/ml penicillin, and 100 µg/ml streptomycin. The cell lines were chosen due to their dominant presence in the pathology of proliferative vitreoretinopathy.
rMC-1 cells were plated in 96-well plates at […] per well. Serial dilutions of the compounds were added to the wells in a total volume of 100 µl. The plates were maintained in a 37 °C incubator. After 5 days, 50 µl of a solution of XTT (Roche Molecular Biochemicals, Indianapolis, IN) was added to each well, and the plates returned to the incubator for 30 min, after which the […] (OD) of each well was measured at a wavelength of 450 nanometers. Percent inhibition was determined by comparing the OD of wells containing compound to the OD of control wells.

ARPE-19 cells = experiment: Cell proliferation assay (ARPE-19/WST-1); type: cell-based; settings: Homo sapiens, 120 h, 5 days, WST-1, read-out: 50% cytotoxicity concentration (CC50)
Procedure: as §2
ARPE-19 cells were plated in 96-well plates at […] per well. Serial dilutions of the compounds were added to the wells in a total volume of 100 µl. The plates were maintained in a 37 °C incubator. After 5 days, 10 µl of a solution of WST-1 (Roche Diagnostics, Indianapolis, IN) was added to each well, and the plates returned to the incubator for 0.5 h, after which the OD450 of each well was measured. Percent inhibition data were obtained from at least three experiments with at least six wells at each concentration in separate 96-well plates. […] The results were expressed as the percentage of the optical density of treated cells relative to that of untreated controls.

[2] = Simulated intravitreal clearance kinetics (dissolution chamber); type: in vitro ADME
Procedure: Dissolution starting from an intravitreal drug depot was simulated using a custom chamber and a syringe pump. The drug powder (600 µg) was weighed into the chamber, which had 1.5 ml of effective circulation volume to mimic the rabbit vitreous. The chamber was filled with 1.5 ml of Hank’s Balanced Salt Solution (HBSS). The chamber was then connected by tubing to a NE-1000 syringe pump (New Era Pump Systems, Farmingdale, NY) on one end and open tubing on the other end so that the solution could be collected into a vial (Figure 1). The syringe pump was set to a flow rate of 2 µl/min [12], and the syringe filled with HBSS. The entire setup was maintained at 37 °C and pumped continuously. This dissolution chamber mimics the rabbit vitreous fluid turnover only. […] At the same time every day, the vial was changed and the contents collected and stored at −80 °C until liquid chromatography/mass spectrometry (LC/MS) was performed.
Figure 1 The dissolution chamber is made of poly methyl methacrylate. Inlet tubing connects from a syringe pump to the upper part of the chamber, and the outlet tubing leaves from the lower part of the chamber to the sample collector. In the center of the dissolution chamber, a titanium mesh circle is installed to prevent the large drug particles reaching the lower chamber to possibly clog the outgoing tubing. The mesh contains […].

[3] = Water solubility (observation); type: physicochemical
rabbit eyes = experiment: Toxicity study of HDP-cP-Ara-C in rabbit eyes (intravitreal injection); type: in vivo; settings: for Dark A amp (dark adapted ERG a-wave amplitude) / Dark B amp / Flicker amp / Light A amp / Light B amp: OD, n=4, in µV (unit assumed)
Excerpt: Sixteen New Zealand Red rabbits were used for this study. Only one eye of each animal was used for the drug testing, and the fellow eye was used as a control by injection of the diluent. […] After the intravitreal injection, the rabbits were examined at week 1, 2, 4, 8, and 12 and then once a month for 7 months. The eyes were monitored with slit-lamp exam, tonometry, indirect ophthalmoscope, and fundus camera. The drug depot size was estimated and recorded using the optic disc area and the drug depot contour in the vitreous. The number of disc areas for estimating the two dimensions of the drug depot and the contour (ball=3, patch=2, filaments and dots=1) provides an estimate of the density of the drug depot. ERGs were recorded from all animals at week 2, week 8, and immediately before the animals were euthanized by deeply anesthetizing the animals with a combined ketamine (24 mg/kg) and xylazine (6 mg/kg) intramuscular injection followed by an intravenous injection of 0.3 ml/kg B-euthanasia (Schering-Plough Animal Health, Kenilworth, NJ).
as §1

## CCCCCCCCCCCCCCCCOCCCOP1(=O)CO[C@@H](Cn2ccc(N)nc2=O)CO1 (stereo partly shown) [hexadecyloxypropyl cyclic cidofovir]
Herpes simplex virus
  duration of herpes simplex virus suppression: up to 4 months

## CCCCCCCCCCCCCCCCOCCCOP1(=O)OCC2OC(n3cc(F)c(=O)[nH]c3=O)CC2O1 (stereo not shown) [hexadecyloxypropyl 5-fluoro-2'-deoxyuridine cyclic 3′,5′-monophosphate]
Experimental PVR
  effect on experimental PVR: inhibited experimental PVR

## Nc1ccn([C@@H]2O[C@H](CO)[C@@H](O)[C@@H]2O)c(=O)n1 [cytarabine, 1-β-D-arabinofuranosylcytosine]
[1]
  intravitreal half-life: ≤ 12 h

## CCCCCCCCCCCCCCCCOCCCOP(=O)(O)OC[C@H]1O[C@@H](n2ccc(N)nc2=O)[C@@H](O)[C@@H]1O [HDP-P-Ara-C, hexadecyloxypropyl cytarabine 5′-monophosphate]
Rat eyes; after intravitreal injection
  depot formation in the vitreous: did not form a depot
Rat eyes; intravitreal 2-228 µg/eye, 2 weeks
  ocular toxicity: no ocular toxicity was found
Rat eyes; intravitreal, 2 weeks
  ERG and pathology: normal retinal physiology and histology
Rat eyes; week 2 after intravitreal injection, including highest dose 228 µg/eye
  vitreous drug level (HPLC): not detectable; also recorded: no drug was detectable; also recorded: no HDP-P-Ara-C was detected
rMC-1 cells
  CC50: 32 ± 2.2 µM
ARPE-19 cells
  CC50: 52 ± 2.6 µM
[2]; day 7 and after
  drug in eluate samples: no drug was detected
[2]; within 3 days, flow rate 2 µl/min
  drug cleared from the chamber: 99%

## CCCCCCCCCCCCCCCCOCCCOP1(=O)OC[C@H]2O[C@@H](n3ccc(N)nc3=O)[C@@H](O)[C@@H]2O1 (stereo partly shown) [HDP-cP-Ara-C, hexadecyloxypropyl cytarabine 3′,5′-cyclic monophosphate]
[3]
  water solubility: limited aqueous solubility; also recorded: minimally water soluble; also recorded: sparingly water soluble
Rabbit eyes; 250 µg intravitreal, paraffin sections vs fellow eye
  TUNEL staining / retinal structure: No structural abnormality or apoptosis; also recorded: normal structures and negative apoptosis staining
Rabbit eyes; 250 µg or lower doses
  ERG examination: did not reveal drug toxicity
Rabbit eyes; 800 µg, 7-month study
  eyes with direct contact of drug depot with optic nerve or inferior retina (gliosis, discoloration): two eyes out of the four eyes
Rabbit eyes; 800 µg/eye
  dark adapted a-wave and flicker ERG amplitude vs fellow control eyes: significantly lower
Rabbit eyes; 25-800 µg/eye
  intraocular pressure, injected eyes vs fellow eyes: no significant difference
Rabbit eyes; 80 or 250 µg/eye, estimation of vitreal clearance
  estimated time drug depot would be visible: 3 months
Rabbit eyes; all doses (25-800 µg/eye)
  time drug depots visible: ≥ 2 months
Rabbit eyes; high dose 250 µg/eye
  Dark A amp (dark adapted ERG a-wave amplitude): −15.6
  Dark B amp: 83.19
  Flicker amp: 25.07
  Light A amp: −3.57
  Light B amp: 49.68
Rabbit eyes; highest dose 800 µg/eye
  Dark A amp (dark adapted ERG a-wave amplitude): −11.69
  Dark B amp: 95.35
  Flicker amp: 21.09
  Light A amp: −5.57
  Light B amp: 48.06
Rabbit eyes; highest dose (800 µg/eye)
  time drug depot still visible: ≥ 7 months
Rabbit eyes; intravitreal
  well tolerated dose: up to 250 µg/eye
Rabbit eyes; low dose 25 µg/eye
  Dark A amp (dark adapted ERG a-wave amplitude): −14.44
  Dark B amp: 88.14
  Flicker amp: 22.58
  Light A amp: −4.49
  Light B amp: 47.93
Rabbit eyes; moderate dose 80 µg/eye
  Dark B amp: 79.31
  Flicker amp: 23.51
  Light A amp: −5.64
  Light B amp: 42.83
Rabbit eyes; week 1, 25 µg
  AC cell (eyes affected/eyes): 0/4
  Fundus abnormality (eyes affected/eyes): 0/4
Rabbit eyes; week 1, 25 µg, haze from vitreous hemorrhage during injection
  Vit. Clarity (eyes affected/eyes): 1/4#
Rabbit eyes; week 1, 80 µg
  AC cell (eyes affected/eyes): 0/4
  Fundus abnormality (eyes affected/eyes): 0/4
  Vit. Clarity (eyes affected/eyes): 0/4
Rabbit eyes; week 1, 250 µg
  AC cell (eyes affected/eyes): 0/4
  Fundus abnormality (eyes affected/eyes): 0/4
  Vit. Clarity (eyes affected/eyes): 0/4
Rabbit eyes; week 1, 800 µg
  AC cell (eyes affected/eyes): 0/4
  Fundus abnormality (eyes affected/eyes): 0/4
  Vit. Clarity (eyes affected/eyes): 0/4
Rabbit eyes; week 8, 25 µg
  AC cell (eyes affected/eyes): 0/4
  Fundus abnormality (eyes affected/eyes): 0/4
  Vit. Clarity (eyes affected/eyes): 0/4
Rabbit eyes; week 8, 80 µg
  AC cell (eyes affected/eyes): 0/4
  Fundus abnormality (eyes affected/eyes): 0/4
  Vit. Clarity (eyes affected/eyes): 0/4
Rabbit eyes; week 8, 250 µg
  AC cell (eyes affected/eyes): 0/4
  Fundus abnormality (eyes affected/eyes): 0/4
  Vit. Clarity (eyes affected/eyes): 0/4
Rabbit eyes; week 28, 800 µg
  AC cell (eyes affected/eyes): 0/4
  Vit. Clarity (eyes affected/eyes): 0/4
Rabbit eyes; week 28, 800 µg, direct contact of depot with medullary ray or inferior retina
  Fundus abnormality (eyes affected/eyes): 2/4*
rMC-1 cells
  CC50: 25 µM
ARPE-19 cells
  CC50: 50 µM
[2]; day 25 to day 36
  drug concentration in the eluate (low-level sustained release): about 16 ng/mL
[2]; dissolution chamber eluate
  day of peak release: 9 days and ~10 days
[2]; eluate analysis, medium printed as PBS, HBSS
  hydrolysis to HDP-P-Ara-C during the dissolution experiment: slow hydrolysis
[2]; end of experiment, flow rate 2 µL/min
  time still detectable in dissolution chamber eluate: ≥ 36 days
